From US12606561B2, “Substituted pyrazolo[1,5-a][1,3,5]triazines as CDK inhibitors” (QURIENT CO., LTD., priority 2018, dated 2026)

How the values were obtained:
[1] = target: T1, CDK2/Cyclin A (Homo sapiens, UniProt P24941); assay: Enzymatic assay for CDK2 (LANCE Ultra kinase assay, FRET based); type: biochemical; details: ATP at Km
T1 construct: purchased Invitrogen PV6290
Procedure, shortened: (§1)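 TR-FRET kinase assay at ATP Km with ULight-MBP peptide (68 nM) and Eu-anti-phospho-MBP antibody; CDK2/Cyclin A at […], CDK5/p25 at […]. 8-dose 4-fold compound dilutions; 60 min kinase reaction at 23° C., EDTA stop, 60 min detection, read at 615/665 nm.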

[2] = target: T2, CDK7/Cyclin H/MNAT1 (Homo sapiens, UniProt P50613); assay: Enzymatic assay for CDK7 (LANCE Ultra kinase assay, FRET based); type: biochemical; details: for IC50: ATP at Km
T2 construct: purchased Invitrogen PR6749B
Procedure, shortened: (§2)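 Kinase activity of each purified CDK/cyclin complex was followed in a FRET format where a Europium anti-phospho-antibody recognises phosphorylated ULight-labeled peptide. ATP was held at its Km.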

[3] = target: T3, CDK1/Cyclin B (Homo sapiens, UniProt P06493); assay: Enzymatic assay for CDK1 (LANCE Ultra kinase assay, FRET based); type: biochemical; details: ATP at Km; read-out: CDK1 enzymatic activity IC50
T3 construct: purchased Invitrogen PR4768C
Procedure, shortened: as §2

[4] = target: T4, CDK5/p25 (Homo sapiens, UniProt Q00535); assay: Enzymatic assay for CDK5 (LANCE Ultra kinase assay, FRET based); type: biochemical; details: ATP at Km
T4 construct: purchased Invitrogen PR8543B
Procedure, shortened: as §1

[5] = system: OVCAR-3; assay: OVCAR-3 viability assay (CellTiter-Glo, 72 hours); type: cell-based; details: Homo sapiens; OVCAR-3 cells
Procedure, shortened: (§3)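 Each line was plated at its own density (1×10^4, 5×10^3 and 1×10^3 cells/well for MV4-11, OVCAR-3 and A2780 respectively) in RPMI-1640 with 10% FBS. Treatment with compound, 0.0015 uM to 10 uM and DMSO under 0.1%, lasted 72 h. Surviving cells were quantified by CellTiter-Glo.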

[6] = system: MV4-11; assay: Cellular MV4-11 viability assay (CellTiter-Glo, 72 hours); type: cell-based; details: Homo sapiens; MV4-11 cells
Experimental: Human […] cell line, MV4-11_(ATCC, Cat #CRL-9591), NSCLC (Non-small cell lung cancer) cell line H460 (ATCC, Cat #HTB-177), A2780 (ECACC, Cat #93112519) and OVCAR-3(ATCC, Cat #HTB-161) were obtained from ATCC. Cells were grown in RPMI-1640 media (Invitrogen, Cat #22400-089) supplemented with 10% FBS (Invitrogen, Cat #10099141) and 1% penicillin/streptomycin (Invitrogen, Cat #15070063) and cultured at 37° C., 5% CO2 in a humidified chamber. All cell lines were routinely tested for mycoplasma.
To effect of the CDK7 inhibitor to inhibit the growth of target cancer cells, viability assay were conducted a 72 hour time period. Briefly, the candidate cell line was plated in 96 well plate at the following density of cells respectively. 1×10^4 cells/well for MV4-11, 5×10^3 for H460 and OVCAR-3, and 1×10^3 for A2780. After 24 hours, the cells were treated with various concentrations of the compound (ranging from 0.0015 uM to 10 uM). DMSO solvent without compound served as a control and final DMSO concentration lest than 0.1%. After 72 hours of incubation at 37° C., 5% CO2 incubator, cells were analyzed for the viability using the CellTiter-Glo Luminescent Cell Viability Assay (Promega, Cat #G7570). All viability assays were performed in duplicate and Luminescence was read using an Envision (Perkin Elmer, USA). Data was analyzed using XLfit software.

[7] = system: A2780; assay: A2780 viability assay (CellTiter-Glo, 72 hours); type: cell-based; details: Homo sapiens; A2780 cells
Procedure, shortened: as §3

T3 sequence (P06493 whole entry): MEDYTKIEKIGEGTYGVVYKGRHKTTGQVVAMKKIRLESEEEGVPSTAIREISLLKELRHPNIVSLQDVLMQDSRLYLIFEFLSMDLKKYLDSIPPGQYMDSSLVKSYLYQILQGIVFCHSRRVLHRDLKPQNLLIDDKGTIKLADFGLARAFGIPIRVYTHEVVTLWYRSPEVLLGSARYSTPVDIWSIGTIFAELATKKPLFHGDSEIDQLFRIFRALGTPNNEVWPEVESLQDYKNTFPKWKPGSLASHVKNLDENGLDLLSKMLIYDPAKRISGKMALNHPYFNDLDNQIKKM
T3 sequence (P14635 whole entry partner): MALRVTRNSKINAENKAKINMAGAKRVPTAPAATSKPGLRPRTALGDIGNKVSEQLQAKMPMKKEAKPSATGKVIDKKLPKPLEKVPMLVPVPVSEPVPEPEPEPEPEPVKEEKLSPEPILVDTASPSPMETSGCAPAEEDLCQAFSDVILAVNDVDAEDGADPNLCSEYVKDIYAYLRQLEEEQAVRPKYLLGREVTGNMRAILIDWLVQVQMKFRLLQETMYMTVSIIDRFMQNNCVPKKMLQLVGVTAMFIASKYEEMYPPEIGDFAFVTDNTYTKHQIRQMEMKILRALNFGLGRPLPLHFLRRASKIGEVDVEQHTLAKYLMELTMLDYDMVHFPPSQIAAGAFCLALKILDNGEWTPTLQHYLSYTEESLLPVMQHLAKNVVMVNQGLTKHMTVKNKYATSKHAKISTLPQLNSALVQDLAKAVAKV
T2 sequence (P50613 whole entry): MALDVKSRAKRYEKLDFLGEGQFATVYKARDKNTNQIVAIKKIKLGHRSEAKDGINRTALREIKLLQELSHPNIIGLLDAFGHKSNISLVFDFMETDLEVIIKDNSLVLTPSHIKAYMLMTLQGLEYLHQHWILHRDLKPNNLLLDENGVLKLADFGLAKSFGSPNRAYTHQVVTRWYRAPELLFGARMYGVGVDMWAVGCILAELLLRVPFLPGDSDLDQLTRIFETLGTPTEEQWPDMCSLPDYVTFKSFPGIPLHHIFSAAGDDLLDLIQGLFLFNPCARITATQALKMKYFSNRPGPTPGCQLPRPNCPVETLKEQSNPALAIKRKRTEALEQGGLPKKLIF
T2 sequence (P51946 whole entry partner): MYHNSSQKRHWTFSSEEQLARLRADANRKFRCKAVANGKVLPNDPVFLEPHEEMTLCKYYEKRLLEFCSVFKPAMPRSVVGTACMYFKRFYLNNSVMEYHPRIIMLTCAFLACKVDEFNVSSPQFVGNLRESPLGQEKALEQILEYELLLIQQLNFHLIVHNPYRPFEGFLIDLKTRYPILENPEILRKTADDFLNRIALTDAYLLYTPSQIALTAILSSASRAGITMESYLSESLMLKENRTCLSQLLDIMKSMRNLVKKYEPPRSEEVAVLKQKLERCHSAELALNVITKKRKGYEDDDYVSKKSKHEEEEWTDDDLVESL
T2 sequence (P51948 whole entry partner): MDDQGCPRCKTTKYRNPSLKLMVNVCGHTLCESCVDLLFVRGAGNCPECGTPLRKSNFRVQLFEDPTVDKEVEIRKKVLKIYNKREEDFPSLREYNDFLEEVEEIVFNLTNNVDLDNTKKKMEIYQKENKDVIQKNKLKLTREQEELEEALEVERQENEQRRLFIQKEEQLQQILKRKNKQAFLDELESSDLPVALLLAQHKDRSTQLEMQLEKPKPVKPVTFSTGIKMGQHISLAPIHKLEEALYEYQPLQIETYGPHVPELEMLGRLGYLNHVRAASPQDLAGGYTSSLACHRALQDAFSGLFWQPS
T4 sequence (Q00535 whole entry): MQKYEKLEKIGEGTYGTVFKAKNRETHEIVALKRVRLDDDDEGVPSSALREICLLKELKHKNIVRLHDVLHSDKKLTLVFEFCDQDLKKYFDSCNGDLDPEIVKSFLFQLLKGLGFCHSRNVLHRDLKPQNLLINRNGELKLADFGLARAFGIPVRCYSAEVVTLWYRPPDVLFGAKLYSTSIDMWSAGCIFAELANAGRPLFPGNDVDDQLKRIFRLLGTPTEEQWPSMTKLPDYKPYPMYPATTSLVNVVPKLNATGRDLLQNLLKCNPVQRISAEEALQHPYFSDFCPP
T4 sequence (Q15078 99-307 partner limits assumed): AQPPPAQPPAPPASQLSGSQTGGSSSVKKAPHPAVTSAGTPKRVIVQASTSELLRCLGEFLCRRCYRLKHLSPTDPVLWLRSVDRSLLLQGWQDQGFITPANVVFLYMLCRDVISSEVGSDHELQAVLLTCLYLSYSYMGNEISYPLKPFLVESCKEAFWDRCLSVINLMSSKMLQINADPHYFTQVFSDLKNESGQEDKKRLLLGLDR

Structure (SMILES)	IC50 [1]	IC50 [2]	CDK1/CDK7: Selectivity of CDK7 inhibition over CDK1 inhibition [2]	CDK2/CDK7: Selectivity of CDK7 inhibition over CDK2 inhibition [2]	CDK5/CDK7: Selectivity of CDK7 inhibition over CDK5 inhibition [2]	IC50 [3]	IC50 [4]	IC50 [5]	IC50 [6]	IC50 [7]
C=CC(=O)Nc1ccc2c(-c3ccccc3CNc3nc(N4CCC(N)CC4)nc4c(C(C)C)cnn34)nccc2c1 [Compound 46]	> 1000 nM	< 100 nM	A (A indicates [fold] > 500)	A (A indicates [fold] > 500)	A (A indicates [fold] > 500)	> 1000 nM	> 1000 nM	< 1000 nM	< 1000 nM	< 1000 nM
CC#CC(=O)Nc1ccc2c(-c3ccccc3CNc3nc(N4CCC(N)CC4)nc4c(C(C)C)cnn34)nccc2c1 [Compound 47]	> 1000 nM	< 100 nM	A (A indicates [fold] > 500)	A (A indicates [fold] > 500)	B (B indicates 50 < [fold] ≤ 500)	> 1000 nM	> 1000 nM	< 1000 nM	< 1000 nM	< 1000 nM
C=C(C)C(=O)Nc1ccc2c(-c3ccccc3CNc3nc(N4CCC(N)CC4)nc4c(C(C)C)cnn34)nccc2c1 [Compound 48]	> 1000 nM	< 100 nM	A (A indicates [fold] > 500)	A (A indicates [fold] > 500)	A (A indicates [fold] > 500)	> 1000 nM	> 1000 nM	< 1000 nM	< 1000 nM	< 1000 nM
CC(C)c1cnn2c(NCc3ccccc3-c3nccc4cc(NC(=O)C5(C#N)CC5)ccc34)nc(N3CCC(N)CC3)nc12 [Compound 49]	> 1000 nM	< 100 nM	A (A indicates [fold] > 500)	A (A indicates [fold] > 500)	A (A indicates [fold] > 500)	> 1000 nM	> 1000 nM	< 1000 nM	< 1000 nM	< 1000 nM
C/C=C/C(=O)Nc1ccc2c(-c3ccccc3CNc3nc(N4CCC(N)CC4)nc4c(C(C)C)cnn34)nccc2c1 [Compound 50]	> 1000 nM	< 100 nM	A (A indicates [fold] > 500)	A (A indicates [fold] > 500)	A (A indicates [fold] > 500)	> 1000 nM	> 1000 nM	< 1000 nM	< 1000 nM	< 1000 nM
CC(C)c1cnn2c(NCc3ccccc3-c3nccc4cc(NC(=O)/C=C/CN5CCCCC5)ccc34)nc(N3CCC(N)CC3)nc12 [Compound 52]	> 1000 nM	< 100 nM	A (A indicates [fold] > 500)	A (A indicates [fold] > 500)	A (A indicates [fold] > 500)	> 1000 nM	> 1000 nM	< 1000 nM	< 1000 nM	< 1000 nM

Continued, values first:

IC50 [1]	IC50 [2]	CDK1/CDK7: Selectivity of CDK7 inhibition over CDK1 inhibition [2]	CDK2/CDK7: Selectivity of CDK7 inhibition over CDK2 inhibition [2]	CDK5/CDK7: Selectivity of CDK7 inhibition over CDK5 inhibition [2]	IC50 [3]	IC50 [4]	IC50 [5]	IC50 [6]	IC50 [7]	Structure (SMILES)
> 1000 nM	< 100 nM	A (A indicates [fold] > 500)	A (A indicates [fold] > 500)	A (A indicates [fold] > 500)	> 1000 nM	> 1000 nM	< 1000 nM	< 1000 nM	< 1000 nM	CC(C)c1cnn2c(NCc3ccccc3-c3nccc4cc(NC(=O)/C=C/CN(C)C)ccc34)nc(NC3CCC(O)CC3)nc12 (centres unmarked) [Compound 36]
> 1000 nM	< 100 nM	A (A indicates [fold] > 500)	A (A indicates [fold] > 500)	B (B indicates 50 < [fold] ≤ 500)	> 1000 nM	> 1000 nM	< 1000 nM	< 1000 nM	< 1000 nM	CC(C)c1cnn2c(NCc3ccccc3-c3nccc4cc(NC(=O)/C=C/CN(C)C)ccc34)nc(N3CCC(N(C)C)CC3)nc12 [Compound 39]
> 1000 nM	< 100 nM	A (A indicates [fold] > 500)	A (A indicates [fold] > 500)	B (B indicates 50 < [fold] ≤ 500)	> 1000 nM	> 1000 nM	< 1000 nM	< 1000 nM	< 1000 nM	CC(C)=CC(=O)Nc1ccc2c(-c3ccccc3CNc3nc(N4CCC(N)CC4)nc4c(C(C)C)cnn34)nccc2c1 [Compound 40]
> 1000 nM	< 100 nM	B (B indicates 50 < [fold] ≤ 500)	B (B indicates 50 < [fold] ≤ 500)	B (B indicates 50 < [fold] ≤ 500)	> 1000 nM	> 1000 nM	< 1000 nM	< 1000 nM	< 1000 nM	CC(C)c1cnn2c(NCc3ccccc3-c3nccc4cc(NC(=O)/C=C/CN(C)C)ccc34)nc(-n3ccc(CO)n3)nc12 [Compound 41]
> 1000 nM	100 to 1000 nM	B (B indicates 50 < [fold] ≤ 500)	B (B indicates 50 < [fold] ≤ 500)	B (B indicates 50 < [fold] ≤ 500)	> 1000 nM	> 1000 nM	< 1000 nM	< 1000 nM	< 1000 nM	CC(C)c1cnn2c(NCc3ccccc3-c3nccc4cc(NC(=O)/C=C/CN(C)C)ccc34)nc(N3CCOCC3)nc12 [Compound 42]
> 1000 nM	100 to 1000 nM	B (B indicates 50 < [fold] ≤ 500)	B (B indicates 50 < [fold] ≤ 500)	B (B indicates 50 < [fold] ≤ 500)	> 1000 nM	> 1000 nM	< 1000 nM	< 1000 nM	< 1000 nM	CC(C)c1cnn2c(NCc3ccccc3-c3nccc4cc(NC(=O)/C=C/CN(C)C)ccc34)nc(NCC3CCOCC3)nc12 [Compound 43]
> 1000 nM	< 100 nM	A (A indicates [fold] > 500)	A (A indicates [fold] > 500)	A (A indicates [fold] > 500)	> 1000 nM	> 1000 nM	< 1000 nM	< 1000 nM	< 1000 nM	COC1CCC(Nc2nc(NCc3ccccc3-c3nccc4cc(NC(=O)/C=C/CN(C)C)ccc34)n3ncc(C(C)C)c3n2)CC1 (centres unmarked) [Compound 44]
> 1000 nM	< 100 nM	A (A indicates [fold] > 500)	A (A indicates [fold] > 500)	A (A indicates [fold] > 500)	> 1000 nM	> 1000 nM	< 1000 nM	< 1000 nM	< 1000 nM	CC(C)c1cnn2c(NCc3ccccc3-c3nccc4cc(NC(=O)/C=C/CN(C)C)ccc34)nc(NCC3CCNCC3)nc12 [Compound 45]
